Like-named read-outs stand apart in the source and are kept apart here.
Columns and labels:
[1] = biological target: T1, GAL4 DBD-CfEcR(DEF)/VP16AD-MmRXRE (Choristoneura fumiferana, UniProt O77240); test: cell-based; conditions: for 13B3 Rel Max FI: maximum fold induction at any concentration relative to that of GS-E ligand; for fold induction at 33 µM: CHO, read-out: Fold Induction Average, 13B3 Assay (33 μM)
T1 sequence (O77240 1-513): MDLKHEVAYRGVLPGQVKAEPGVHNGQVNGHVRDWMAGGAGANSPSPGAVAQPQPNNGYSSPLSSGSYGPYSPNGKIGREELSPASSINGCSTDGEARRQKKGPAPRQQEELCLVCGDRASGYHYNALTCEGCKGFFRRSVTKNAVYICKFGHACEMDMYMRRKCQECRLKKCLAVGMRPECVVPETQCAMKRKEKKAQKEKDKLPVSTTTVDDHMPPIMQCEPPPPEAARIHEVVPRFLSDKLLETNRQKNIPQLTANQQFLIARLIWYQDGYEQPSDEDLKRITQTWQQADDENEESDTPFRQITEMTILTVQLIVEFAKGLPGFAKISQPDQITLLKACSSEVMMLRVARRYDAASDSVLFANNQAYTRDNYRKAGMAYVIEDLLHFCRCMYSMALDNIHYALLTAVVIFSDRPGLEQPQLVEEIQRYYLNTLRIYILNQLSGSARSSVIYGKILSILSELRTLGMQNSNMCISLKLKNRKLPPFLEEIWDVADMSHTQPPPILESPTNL
From the text: GAL4 DBD-CfEcR(DEF)/VP16AD-MmRXRE: The wild-type D, E, and F domains from spruce budworm Choristoneura fumiferana EcR (“CfEcR-DEF”; SEQ ID NO: 1) were fused to a GAL4 DNA binding domain (“Gal4 DBD1-147”; nucleotides 31 to 471 of SEQ ID NO: 2) and placed under the control of the SV40e promoter of pM vector (PT3119-5, Clontech, Palo Alto, Calif.). The D and E domains from Mus Musculus RXR (“MmRXR-DE”; SEQ ID NO: 10) were fused to the transactivation domain from VP16 (“VP16AD”; SEQ ID NO: 5) and placed under the control of the SV40e promoter of the pVP16 vector (PT3127-5, Clontech, Palo Alto, Calif.).
CHO cells were transienty transfected with transcription cassettes for GAL4 DBD-CfEcR(DEF) and for VP16AD-MmRXRE controlled by SV40e promoters. Stably transfected cells were selected using Hygromycin. Individually isolated CHO cell clones were transiently transfected with a GAL4 RE-luciferase reporter (pMR-Luc, Stratagene, La Jolla, Calif.). The 13B3 clone was selected using Zeocin.
Cells were trypsinized and diluted to a concentration of 2.5×10^4 cells mL. 100 μL of cell suspension was placed in each well of a 96 well plate and incubated at 37° C. under 5% CO2 for 24 h. Ligand stock solutions were prepared in DMSO and diluted 300 fold for all treatments. Dose response testing consisted of 8 concentrations ranging from 33 μM to 0.01 μM.
Luciferase reporter gene expression was measured 48 h after cell treatment using Bright-Glo™ Luciferase Assay System from Promega (E2650). Luminescence was detected at room temperature using a Dynex MLX microtiter plate luminometer.
Fold inductions were calculated from single dose testing by dividing relative light units (RLU) in ligand treated cells by RLU in DMSO treated cells. BC50s were calculated from dose response data using a three-parameter logistic model.

[2] = biological target: T2, Bombyx mori EcR (VP16 fusion, switch construct CVBE) with 6XEcRE LacZ reporter (Bombyx mori, UniProt P49881); test: Z3 assay: β-galactosidase (LacZ) reporter gene fold induction in stably transformed human 293 kidney cells (clone Z3); assay type: cell-based
T2 construct: expressed in transfected cells; host or cells: Human 293 kidney (HEK-293) cells, retrovirally infected, clone Z3
T2 sequence (P49881 86-606 limits assumed): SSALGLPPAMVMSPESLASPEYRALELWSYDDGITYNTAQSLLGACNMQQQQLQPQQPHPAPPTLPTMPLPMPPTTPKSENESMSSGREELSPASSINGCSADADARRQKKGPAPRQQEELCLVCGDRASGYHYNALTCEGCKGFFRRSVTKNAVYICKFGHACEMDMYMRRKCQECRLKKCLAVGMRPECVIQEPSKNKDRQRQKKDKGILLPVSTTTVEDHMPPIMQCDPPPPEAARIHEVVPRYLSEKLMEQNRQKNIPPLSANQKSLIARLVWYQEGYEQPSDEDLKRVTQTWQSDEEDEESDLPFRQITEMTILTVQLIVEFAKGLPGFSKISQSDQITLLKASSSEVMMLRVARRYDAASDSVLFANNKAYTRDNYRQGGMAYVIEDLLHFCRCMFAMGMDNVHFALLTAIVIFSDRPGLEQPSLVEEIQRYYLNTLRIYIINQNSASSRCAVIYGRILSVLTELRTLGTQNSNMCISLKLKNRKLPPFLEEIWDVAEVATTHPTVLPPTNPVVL
T2 sequence (P19793 1-462 partner): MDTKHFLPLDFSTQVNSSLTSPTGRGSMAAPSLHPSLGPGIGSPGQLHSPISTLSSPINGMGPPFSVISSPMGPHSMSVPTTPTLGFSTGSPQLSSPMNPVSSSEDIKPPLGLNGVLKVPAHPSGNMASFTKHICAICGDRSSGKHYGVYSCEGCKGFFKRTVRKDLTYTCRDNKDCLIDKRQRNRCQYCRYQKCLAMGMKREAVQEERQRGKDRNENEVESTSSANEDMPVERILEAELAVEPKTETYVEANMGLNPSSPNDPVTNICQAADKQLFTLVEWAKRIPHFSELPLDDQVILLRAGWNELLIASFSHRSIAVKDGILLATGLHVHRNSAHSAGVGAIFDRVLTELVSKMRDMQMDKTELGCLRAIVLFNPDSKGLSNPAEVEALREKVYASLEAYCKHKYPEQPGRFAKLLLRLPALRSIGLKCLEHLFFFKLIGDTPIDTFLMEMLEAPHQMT
From the text: Dr. F. Gage provided a population of stably transformed cells containing CVBE and 6XEcRE as described in Suhr, S. T., Gil, E. B., Senut M. C., Gage, F. H. (1998) Proc. Natl. Acad. Sci. USA 95, 7999-804. Human 293 kidney cells, also referred to as HEK-293 cells, were sequentially infected with retroviral vectors encoding first the switch construct CVBE, and subsequently the reporter construct 6XEcRE Lac Z. The switch construct contained the coding sequence for amino acids 26-546 from Bombyx mori EcR (BE) (Iatrou) inserted in frame and downstream of the VP16 transactivation domain (VBE). A synthetic ATG start codon was placed under the control of cytomegalovirus (CVBE) immediate early promoter and flanked by long terminal repeats (LTR). The reporter construct contained six copies of the ecdysone response element (EcRE) binding site placed upstream of LacZ and flanked on both sides with LTR sequences (6XEcRE).
Dilution cloning was used to isolate individual clones. Clones were selected using 450 ug/mL G418 and 100 ng/mL puromycin. Individual clones were evaluated based on their response in the presence and absence of test ligands. Clone Z3 was selected for screening and SAR purposes.
Human 293 kidney cells stably transformed with CVBE and 6XEcRE lack were maintained in Minimum Essential Medium (Mediates, 10-010-CV) containing 10% FBS (Life Technologies, 26140-087), […] G418 (Mediates, 30-234-CR), and […] (Sigma, P-7255), at 37° C. in an atmosphere containing 5% CO2 and were subculture when they reached 75% confluence.
Z3 cells were seeded into 96-well tissue culture plates at a concentration of 2.5×10^3 cells per well and incubated at 37° C. in 5% CO2 for twenty-four hours. Stock solutions of ligands were prepared in DMSO. Ligand stock solutions were diluted 100 fold in media and 50 μL of this diluted ligand solution (33 μM) was added to cells. The final concentration of DMSO was maintained at […] in both controls and treatments.
Reporter gene expression was evaluated 48 hours after treatment of cells, β-galactosidase activity was measured using Gal Screen™ bioluminescent reporter gene assay system from Tropix (GSY1000).
Flanking both constructs are long terminal repeats, G418 and puromycin are selectable markers, CMV is the cytomegalovirus promoter, VBE is coding sequence for amino acids 26-546 from Bombyx mori EcR inserted downstream of the VP16 transactivation domain, 6×EcRE is six copies of the ecdysone response element, lacZ encodes for the reporter enzyme β-galactosidase. Suhr, S. T., Gil, E. B., Senut M. C., Gage, F. H. (1998) Proc. Natl. Acad. Sci. USA 95, 7999-804. Swevers, L., Drevet, J. R., Lunke, M. D., Iatrou, K. (1995) Insect Biochem. Mol. Biol. 25, 857-866.

[3] = average; dose response, three-parameter logistic model; read-out: Z3 LC50
[4] = maximum fold induction at any concentration relative to that of GS-E ligand
[5] = single dose 33 μM; ligand treated / DMSO treated cells
[6] = read-out: Fold Induction Average, Z3 Assay (33 μM)
[7] = read-out: Z3 LC50; average; dose response, three-parameter logistic model

COc1cccc(C(=O)NC2(C(=O)c3ccccc3)CCCC2)c1C [Example 1]
13B3 Rel Max FI [1]: 0.00 | EC50 ([1]; read-out: 13B3 EC50, average, dose response, three-parameter logistic model): > 33 µM | Fold Induction Average, 13B3 Assay (33 μM) ([1]; single dose 33 μM, RLU ligand treated / RLU DMSO treated cells): 3 | CC50 [2, 3]: 2.67 µM | Z3 Rel Max FI [2, 4]: 0.14 | Fold Induction Average, Z3 Assay (33 μM) [2, 5]: 71

COc1cccc(C(=O)NC2(C(=O)c3cccc(C)c3)CCCC2)c1C [Example 2]
EC50 [1]: > 33 µM | fold induction at 33 µM [1]: 2620 | 13B3 Rel Max FI [1]: 0.24 | Z3 Rel Max FI [2, 4]: 0.46 | fold induction at 33 µM [2, 6]: 786 | CC50 [2, 7]: 3.38 µM

CCc1ccc(C(=O)NC2(C(=O)c3ccccc3)CCCC2)cc1 [Example 3]
EC50 [1]: > 33 µM | 13B3 Rel Max FI [1]: 0.00

COc1cccc(C(=O)C2(NC(=O)c3cccc(OC)c3C)CCCC2)c1 [Example 5]
EC50 [1]: > 33 µM | 13B3 Rel Max FI [1]: 0.02

COc1cccc(C(=O)NC2(C(=O)c3cccc(C)c3)CCC2)c1C [Example 6]
EC50 [1]: > 33 µM | fold induction at 33 µM [1]: 1 | 13B3 Rel Max FI [1]: 0.00 | Z3 Rel Max FI [2, 4]: 0.05 | fold induction at 33 µM [2, 6]: 82 | CC50 [2, 7]: 10.7 µM

COc1cccc(C(=O)NC(C)(Cc2ccccc2)C(=O)c2cccc(C)c2)c1C (stereo not shown) [Example 8]
Fold Induction Average, 13B3 Assay (33 μM) [1]: 2 | Fold Induction Average, Z3 Assay (33 μM) [2, 5]: 15

COc1cccc(C(=O)NC2(C(=O)c3cccc(C)c3)CC2)c1C [Example 9]
Fold Induction Average, 13B3 Assay (33 μM) [1]: 0 | Fold Induction Average, Z3 Assay (33 μM) [2, 5]: 12

COc1cccc(C(=O)NC(C)(Cc2ccccc2)C(=O)c2ccc(C)cc2)c1C (stereo not shown) [Example 16]
Fold Induction Average, 13B3 Assay (33 μM) [1]: 0 | Fold Induction Average, Z3 Assay (33 μM) [2, 5]: 10

COc1cccc(C(=O)NC2(C(=O)c3ccc(F)c(C)c3)CC2)c1C [Example 19]
Fold Induction Average, 13B3 Assay (33 μM) [1]: 0 | Fold Induction Average, Z3 Assay (33 μM) [2, 5]: 6

Cc1c(C(=O)NC2(C(=O)c3ccccc3)CCCC2)ccc2c1OCO2 [Example 23]
Fold Induction Average, 13B3 Assay (33 μM) [1]: 2 | Fold Induction Average, Z3 Assay (33 μM) [2, 5]: 32

COc1cccc(C(=O)NC2(C(=O)c3ccc(C)cc3)CC2)c1C [Example 24]
Fold Induction Average, 13B3 Assay (33 μM) [1]: 87 | Fold Induction Average, Z3 Assay (33 μM) [2, 5]: 11

COc1cccc(C(=O)NC2(C(=O)c3cccc(C)c3)CCC3(CC2)OCCO3)c1C [Example 35]
Fold Induction Average, 13B3 Assay (33 μM) [1]: 2 | Fold Induction Average, Z3 Assay (33 μM) [2, 5]: 9

CCC(CC)(NC(=O)c1cccc(OC)c1C)C(=O)c1ccccc1C [Example 36]
Fold Induction Average, 13B3 Assay (33 μM) [1]: 0 | Fold Induction Average, Z3 Assay (33 μM) [2, 5]: 4

COc1cccc(C(=O)NC2(C(=O)c3ccccc3C)CCCC2)c1C [Example 39]
Fold Induction Average, 13B3 Assay (33 μM) [1]: 24 | Fold Induction Average, Z3 Assay (33 μM) [2, 5]: 30

COc1ccc(C(=O)C2(NC(=O)c3cccc(OC)c3C)CCCC2)cc1 [Example 41]
Fold Induction Average, 13B3 Assay (33 μM) [1]: 2 | Fold Induction Average, Z3 Assay (33 μM) [2, 5]: 4

COc1cccc(C(=O)NC2(C(=O)c3ccc4c(c3)OCO4)CCCC2)c1C [Example 43]
Fold Induction Average, 13B3 Assay (33 μM) [1]: 2 | Fold Induction Average, Z3 Assay (33 μM) [2, 5]: 3

COc1cccc(C(=O)NC2(C(=O)c3ccc4c(c3)OCO4)CCCCC2)c1C [Example 47]
Fold Induction Average, 13B3 Assay (33 μM) [1]: 3 | Fold Induction Average, Z3 Assay (33 μM) [2, 5]: 21

Cc1nc2ncc(C(=O)NC3(C(=O)c4ccccc4)CCCC3)c(C)n2n1 [Example 103]
Fold Induction Average, 13B3 Assay (33 μM) [1]: 0

CCc1ccc(C(=O)NC2(C(=O)c3cc(C)cc(C)c3)CCCCC2)cc1 [Example 175]
CC50 [2, 3]: 1.51 µM | Z3 Rel Max FI [2, 4]: 0.63

From patent publication US8129355B2, “Ketone ligands for modulating the expression of exogenous genes via an ecdysone receptor complex” (priority 2002, dated 2012)
